# Assay results taken from PubChem BioAssay (NCI).
#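 Tested at 5 concentrations; 48 h exposure; 96-well plates; endpoints linearly interpolated, else capped at highest concentration. At the TGI there is no net growth.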
# Assays:
# Test in all cases: NCI anticancer screen, dose series, 48 h
# BT-549 breast = system: BT-549 breast
# CAKI-1 renal = system: CAKI-1 renal
# DU-145 prostate = system: DU-145 prostate
# K-562 leukemia = system: K-562 leukemia
# MOLT-4 leukemia = system: MOLT-4 leukemia
# NCI-H23 lung = system: NCI-H23 lung
# OVCAR-3 ovarian = system: OVCAR-3 ovarian
# OVCAR-5 ovarian = system: OVCAR-5 ovarian
# SNB-19 CNS = system: SNB-19 CNS
# SR leukemia = system: SR leukemia
# HOP-92 NSCLC = system: HOP-92 NSCLC
structure (smiles),measurement,setting,value
CN(C)C=Nc1nncc2n[nH]nc12,TGI,BT-549 breast,> 100 µM
same,TGI,CAKI-1 renal,> 100 µM
same,TGI,DU-145 prostate,> 100 µM
same,TGI,K-562 leukemia,> 100 µM
same,TGI,MOLT-4 leukemia,> 100 µM
same,TGI,NCI-H23 lung,> 100 µM
same,TGI,OVCAR-3 ovarian,> 100 µM
same,TGI,OVCAR-5 ovarian,> 100 µM
same,TGI,SNB-19 CNS,> 100 µM
same,TGI,SR leukemia,> 100 µM
Cc1cccc2c1C(=O)[C@@](C)([C@]1(C)Nc3cccc(C)c3C1=O)N2,TGI,BT-549 breast,> 100 µM
same,TGI,CAKI-1 renal,> 100 µM
same,TGI,DU-145 prostate,> 100 µM
same,TGI,K-562 leukemia,> 100 µM
same,TGI,MOLT-4 leukemia,> 100 µM
same,TGI,NCI-H23 lung,> 100 µM
same,TGI,OVCAR-3 ovarian,> 100 µM
same,TGI,OVCAR-5 ovarian,> 100 µM
same,TGI,SNB-19 CNS,> 100 µM
same,TGI,SR leukemia,> 100 µM
CCC1CCC2c3c([nH]c4ccccc34)C3C(=O)N(c4ccc(OC)cc4)C(=O)C3C2C1 (centres undefined),TGI,BT-549 breast,> 100 µM
same,TGI,DU-145 prostate,> 100 µM
same,TGI,K-562 leukemia,60.8 µM
same,TGI,MOLT-4 leukemia,32.5 µM
same,TGI,NCI-H23 lung,> 100 µM
same,TGI,OVCAR-3 ovarian,41.9 µM
same,TGI,SNB-19 CNS,74.9 µM
same,TGI,SR leukemia,32.1 µM
COc1ccc(C(C)NNC(=O)c2ccncc2)cc1F (centres undefined),TGI,BT-549 breast,> 100 µM
same,TGI,CAKI-1 renal,> 100 µM
same,TGI,DU-145 prostate,> 100 µM
same,TGI,HOP-92 NSCLC,> 100 µM
same,TGI,K-562 leukemia,> 100 µM
same,TGI,MOLT-4 leukemia,> 100 µM
same,TGI,NCI-H23 lung,> 100 µM
same,TGI,OVCAR-3 ovarian,> 100 µM
same,TGI,OVCAR-5 ovarian,> 100 µM
same,TGI,SNB-19 CNS,> 100 µM
same,TGI,SR leukemia,> 100 µM
O=S(=O)(/N=C1/SC(=Nc2ccccc2)N(c2ccccc2)/C1=N/S(=O)(=O)c1ccccc1)c1ccccc1,TGI,BT-549 breast,79.2 µM
same,TGI,HOP-92 NSCLC,62.9 µM
same,TGI,K-562 leukemia,66.6 µM
same,TGI,MOLT-4 leukemia,62.2 µM
same,TGI,NCI-H23 lung,34.5 µM
same,TGI,OVCAR-5 ovarian,51.6 µM
same,TGI,SNB-19 CNS,96.8 µM
same,TGI,SR leukemia,50.6 µM
Cc1nnc2sc(-c3ccc([N+](=O)[O-])o3)nn12,TGI,BT-549 breast,22.5 µM
same,TGI,CAKI-1 renal,22.3 µM
same,TGI,DU-145 prostate,29.8 µM
same,TGI,HOP-92 NSCLC,35.2 µM
same,TGI,K-562 leukemia,26.1 µM
same,TGI,MOLT-4 leukemia,13.5 µM
same,TGI,NCI-H23 lung,34.4 µM
same,TGI,OVCAR-3 ovarian,25.4 µM
same,TGI,OVCAR-5 ovarian,36.7 µM
same,TGI,SNB-19 CNS,35.3 µM
same,TGI,SR leukemia,59.6 µM
COc1ccc(N2C(=O)/C(=C/c3ccc(N(CCC#N)CCC#N)cc3)N=C2c2ccccc2)c(OC)c1,TGI,BT-549 breast,> 100 µM
same,TGI,CAKI-1 renal,> 100 µM
same,TGI,DU-145 prostate,> 100 µM
same,TGI,HOP-92 NSCLC,68.9 µM
same,TGI,K-562 leukemia,87 µM
same,TGI,MOLT-4 leukemia,> 100 µM
same,TGI,NCI-H23 lung,> 100 µM
same,TGI,OVCAR-3 ovarian,> 100 µM
same,TGI,OVCAR-5 ovarian,> 100 µM
same,TGI,SNB-19 CNS,> 100 µM
same,TGI,SR leukemia,60.3 µM
CCOC(=O)c1cn(C)nc1N/C(C)=C\C(=O)c1ccccc1,TGI,BT-549 breast,> 100 µM
same,TGI,CAKI-1 renal,> 100 µM
same,TGI,DU-145 prostate,> 100 µM
same,TGI,HOP-92 NSCLC,> 100 µM
same,TGI,K-562 leukemia,> 100 µM
same,TGI,MOLT-4 leukemia,> 100 µM
same,TGI,NCI-H23 lung,> 100 µM
same,TGI,OVCAR-3 ovarian,> 100 µM
same,TGI,OVCAR-5 ovarian,> 100 µM
same,TGI,SNB-19 CNS,> 100 µM
same,TGI,SR leukemia,> 100 µM
Nc1ccc(-c2nc3ccccc3s2)cc1,TGI,BT-549 breast,28.9 µM
same,TGI,CAKI-1 renal,> 67.8 µM
same,TGI,DU-145 prostate,31.6 µM
same,TGI,HOP-92 NSCLC,31.9 µM
same,TGI,K-562 leukemia,58.4 µM
same,TGI,MOLT-4 leukemia,70.3 µM
same,TGI,NCI-H23 lung,43.1 µM
same,TGI,OVCAR-3 ovarian,33.3 µM
same,TGI,OVCAR-5 ovarian,36.5 µM
same,TGI,SNB-19 CNS,61.5 µM
same,TGI,SR leukemia,62.2 µM
Cc1nn(-c2ccccn2)c2c1C(SC#N)=C(C=O)CC2,TGI,BT-549 breast,38.9 µM
same,TGI,CAKI-1 renal,19 µM
same,TGI,DU-145 prostate,28.2 µM
same,TGI,HOP-92 NSCLC,34.5 µM
same,TGI,K-562 leukemia,39 µM
same,TGI,MOLT-4 leukemia,6.95 µM
same,TGI,NCI-H23 lung,32.2 µM
same,TGI,OVCAR-3 ovarian,26.5 µM
same,TGI,OVCAR-5 ovarian,20.7 µM
same,TGI,SNB-19 CNS,47.8 µM
same,TGI,SR leukemia,34.3 µM
C=C1C(=O)O[C@H]2C/C(C=O)=C\[C@H]3O[C@H]3/C(COC(=O)C(C)C)=C/CC12 (some centres undefined),TGI,BT-549 breast,24.8 µM
same,TGI,CAKI-1 renal,7.31 µM
same,TGI,DU-145 prostate,25.2 µM
same,TGI,K-562 leukemia,10.4 µM
same,TGI,MOLT-4 leukemia,10.6 µM
same,TGI,NCI-H23 lung,20.3 µM
same,TGI,OVCAR-3 ovarian,19.3 µM
same,TGI,OVCAR-5 ovarian,7.48 µM
same,TGI,SNB-19 CNS,35.4 µM
same,TGI,SR leukemia,7.95 µM
CCOC(=O)C1=C(C)N(c2ccc(C)cc2)C2(O)C=CC(=O)C3=C(O)c4ccccc4C(=O)C312 (centres undefined),TGI,BT-549 breast,49.3 µM
same,TGI,CAKI-1 renal,> 100 µM
same,TGI,DU-145 prostate,55.7 µM
same,TGI,HOP-92 NSCLC,45.4 µM
same,TGI,MOLT-4 leukemia,1.26 µM
same,TGI,NCI-H23 lung,> 100 µM
same,TGI,OVCAR-3 ovarian,> 100 µM
same,TGI,OVCAR-5 ovarian,> 100 µM
same,TGI,SNB-19 CNS,80.2 µM
same,TGI,SR leukemia,2.6 µM
O=C(NCCCCNCCCNC(=O)OCc1ccccc1)OCc1ccccc1,TGI,BT-549 breast,> 100 µM
same,TGI,DU-145 prostate,> 100 µM
same,TGI,HOP-92 NSCLC,87.3 µM
same,TGI,K-562 leukemia,80.7 µM
same,TGI,MOLT-4 leukemia,73.6 µM
same,TGI,NCI-H23 lung,> 100 µM
same,TGI,OVCAR-3 ovarian,> 100 µM
same,TGI,OVCAR-5 ovarian,> 100 µM
same,TGI,SNB-19 CNS,> 100 µM
same,TGI,SR leukemia,92.3 µM
COc1ccc(C2=NNC(=O)c3ccccc3N2c2nc(-c3cccs3)nc3ccc(Br)cc23)cc1,TGI,BT-549 breast,> 100 µM
same,TGI,CAKI-1 renal,> 100 µM
same,TGI,DU-145 prostate,> 100 µM
same,TGI,HOP-92 NSCLC,> 100 µM
same,TGI,K-562 leukemia,> 100 µM
same,TGI,MOLT-4 leukemia,> 100 µM
same,TGI,NCI-H23 lung,> 100 µM
same,TGI,OVCAR-3 ovarian,52.5 µM
same,TGI,OVCAR-5 ovarian,> 100 µM
same,TGI,SNB-19 CNS,> 100 µM
same,TGI,SR leukemia,> 100 µM
OC(O)(C(F)(F)F)C(F)(F)F,TGI,BT-549 breast,> 100 µM
same,TGI,CAKI-1 renal,> 100 µM
same,TGI,DU-145 prostate,> 100 µM
same,TGI,HOP-92 NSCLC,> 100 µM
same,TGI,K-562 leukemia,> 100 µM
same,TGI,MOLT-4 leukemia,> 100 µM
same,TGI,NCI-H23 lung,> 100 µM
same,TGI,OVCAR-3 ovarian,> 100 µM
same,TGI,OVCAR-5 ovarian,> 100 µM
same,TGI,SNB-19 CNS,> 100 µM
same,TGI,SR leukemia,> 100 µM
CC(C)c1nccn1Cc1ccc(Cl)cc1Cl,TGI,BT-549 breast,> 100 µM
same,TGI,CAKI-1 renal,> 100 µM
same,TGI,DU-145 prostate,> 100 µM
same,TGI,HOP-92 NSCLC,> 100 µM
same,TGI,K-562 leukemia,> 100 µM
same,TGI,NCI-H23 lung,> 100 µM
same,TGI,OVCAR-3 ovarian,> 100 µM
same,TGI,OVCAR-5 ovarian,> 100 µM
same,TGI,SNB-19 CNS,> 100 µM
same,TGI,SR leukemia,> 100 µM
